In the NIST ThermoML archive (doi:10.1016/j.jct.2013.06.008):
± gives the expanded uncertainty stated by the source.

Conditions: 100 kPa, Liquid; for electrical conductivity: Alternating current cell with electrodes
[1] = 288.15 K, Buoyancy - hydrostatic balance
[2] = 293.15 K, Buoyancy - hydrostatic balance
[3] = 298.15 K, Buoyancy - hydrostatic balance
[4] = 298.15 K, Capillary tube (Ostwald / Ubbelohde) method
[5] = 303.15 K, Buoyancy - hydrostatic balance
[6] = 303.15 K, Capillary tube (Ostwald / Ubbelohde) method
[7] = 308.15 K, Buoyancy - hydrostatic balance
[8] = 308.15 K, Capillary tube (Ostwald / Ubbelohde) method
[9] = 313.15 K, Buoyancy - hydrostatic balance
[10] = 313.15 K, Capillary tube (Ostwald / Ubbelohde) method
[11] = 318.15 K, Buoyancy - hydrostatic balance
[12] = 318.15 K, Capillary tube (Ostwald / Ubbelohde) method
[13] = 323.15 K, Buoyancy - hydrostatic balance
[14] = 323.15 K, Capillary tube (Ostwald / Ubbelohde) method
[15] = 328.15 K, Buoyancy - hydrostatic balance
[16] = 328.15 K, Capillary tube (Ostwald / Ubbelohde) method
[17] = 333.15 K, Buoyancy - hydrostatic balance
[18] = 333.15 K, Capillary tube (Ostwald / Ubbelohde) method
[19] = 338.15 K, Buoyancy - hydrostatic balance
[20] = 338.15 K, Capillary tube (Ostwald / Ubbelohde) method
[21] = 343.15 K, Capillary tube (Ostwald / Ubbelohde) method
[22] = 348.15 K, Capillary tube (Ostwald / Ubbelohde) method
[23] = 353.15 K, Capillary tube (Ostwald / Ubbelohde) method

## CCC[n+]1cccc(C)c1.O=S(=O)([N-]S(=O)(=O)C(F)(F)F)C(F)(F)F
278.15 K
  electrical conductivity: 0.152 ± 0.003 S/m
283.15 K
  electrical conductivity: 0.199 ± 0.004 S/m
288.15 K
  electrical conductivity: 0.253 ± 0.005 S/m
[1]
  mass density: 1459.6 ± 2 kg/m3
293.15 K
  electrical conductivity: 0.318 ± 0.006 S/m
[2]
  mass density: 1455.6 ± 2 kg/m3
298.15 K
  electrical conductivity: 0.393 ± 0.008 S/m
[3]
  mass density: 1451.4 ± 2 kg/m3
[4]
  viscosity: 54.12 ± 1.2 mPa·s
303.15 K
  electrical conductivity: 0.476 ± 0.01 S/m
[5]
  mass density: 1447.1 ± 2 kg/m3
[6]
  viscosity: 43.46 ± 0.99 mPa·s
308.15 K
  electrical conductivity: 0.571 ± 0.011 S/m
[7]
  mass density: 1442.6 ± 2 kg/m3
[8]
  viscosity: 35.27 ± 0.79 mPa·s
313.15 K
  electrical conductivity: 0.671 ± 0.013 S/m
[9]
  mass density: 1438 ± 2 kg/m3
[10]
  viscosity: 29.18 ± 0.65 mPa·s
318.15 K
  electrical conductivity: 0.786 ± 0.016 S/m
[11]
  mass density: 1433.2 ± 2 kg/m3
[12]
  viscosity: 24.32 ± 0.54 mPa·s
323.15 K
  electrical conductivity: 0.904 ± 0.018 S/m
[13]
  mass density: 1428.7 ± 2 kg/m3
[14]
  viscosity: 20.87 ± 0.46 mPa·s
328.15 K
  electrical conductivity: 1.04 ± 0.021 S/m
[15]
  mass density: 1424.5 ± 2 kg/m3
[16]
  viscosity: 17.94 ± 0.39 mPa·s
333.15 K
  electrical conductivity: 1.18 ± 0.024 S/m
[17]
  mass density: 1420.3 ± 2 kg/m3
[18]
  viscosity: 15.15 ± 0.33 mPa·s
338.15 K
  electrical conductivity: 1.33 ± 0.027 S/m
[19]
  mass density: 1416 ± 2 kg/m3
[20]
  viscosity: 13.4 ± 0.29 mPa·s
343.15 K
  electrical conductivity: 1.49 ± 0.03 S/m
[21]
  viscosity: 11.74 ± 0.25 mPa·s
348.15 K
  electrical conductivity: 1.65 ± 0.033 S/m
[22]
  viscosity: 10.37 ± 0.22 mPa·s
353.15 K
  electrical conductivity: 1.83 ± 0.037 S/m
[23]
  viscosity: 9.19 ± 0.2 mPa·s

## CCCCCC[n+]1ccc(C)cc1.O=S(=O)([N-]S(=O)(=O)C(F)(F)F)C(F)(F)F
283.15 K
  electrical conductivity: 0.0839 ± 0.0017 S/m
283.15 K, Concentric cylinders viscometry
  viscosity: 181.62 ± 5.1 mPa·s
283.15 K, Vibrating tube method
  mass density: 1365.3 ± 2.1 kg/m3
288.15 K
  electrical conductivity: 0.11 ± 0.0022 S/m
288.15 K, Concentric cylinders viscometry
  viscosity: 133.92 ± 3.6 mPa·s
288.15 K, Vibrating tube method
  mass density: 1360.8 ± 2.1 kg/m3
293.15 K
  electrical conductivity: 0.145 ± 0.0029 S/m
293.15 K, Concentric cylinders viscometry
  viscosity: 101.07 ± 2.5 mPa·s
293.15 K, Vibrating tube method
  mass density: 1356.3 ± 2.1 kg/m3
298.15 K
  electrical conductivity: 0.185 ± 0.0037 S/m
298.15 K, Concentric cylinders viscometry
  viscosity: 77.99 ± 1.8 mPa·s
298.15 K, Vibrating tube method
  mass density: 1351.8 ± 2.1 kg/m3
303.15 K
  electrical conductivity: 0.231 ± 0.005 S/m
303.15 K, Concentric cylinders viscometry
  viscosity: 61.3 ± 1.4 mPa·s
303.15 K, Vibrating tube method
  mass density: 1347.4 ± 2.1 kg/m3
308.15 K
  electrical conductivity: 0.283 ± 0.006 S/m
308.15 K, Concentric cylinders viscometry
  viscosity: 49.03 ± 1.1 mPa·s
308.15 K, Vibrating tube method
  mass density: 1342.9 ± 2.1 kg/m3
313.15 K
  electrical conductivity: 0.346 ± 0.007 S/m
313.15 K, Concentric cylinders viscometry
  viscosity: 39.75 ± 0.89 mPa·s
313.15 K, Vibrating tube method
  mass density: 1338.5 ± 2.1 kg/m3
318.15 K
  electrical conductivity: 0.415 ± 0.008 S/m
318.15 K, Concentric cylinders viscometry
  viscosity: 32.73 ± 0.72 mPa·s
318.15 K, Vibrating tube method
  mass density: 1334.1 ± 2.1 kg/m3
323.15 K
  electrical conductivity: 0.487 ± 0.01 S/m
323.15 K, Concentric cylinders viscometry
  viscosity: 27.38 ± 0.6 mPa·s
323.15 K, Vibrating tube method
  mass density: 1329.6 ± 2.1 kg/m3
328.15 K
  electrical conductivity: 0.571 ± 0.011 S/m
328.15 K, Concentric cylinders viscometry
  viscosity: 23.11 ± 0.51 mPa·s
328.15 K, Vibrating tube method
  mass density: 1325.2 ± 2.1 kg/m3
333.15 K
  electrical conductivity: 0.652 ± 0.013 S/m
333.15 K, Concentric cylinders viscometry
  viscosity: 19.71 ± 0.43 mPa·s
333.15 K, Vibrating tube method
  mass density: 1320.8 ± 2.1 kg/m3
338.15 K
  electrical conductivity: 0.756 ± 0.015 S/m
338.15 K, Concentric cylinders viscometry
  viscosity: 16.97 ± 0.37 mPa·s
338.15 K, Vibrating tube method
  mass density: 1316.5 ± 2.1 kg/m3
343.15 K
  electrical conductivity: 0.861 ± 0.017 S/m
343.15 K, Concentric cylinders viscometry
  viscosity: 14.73 ± 0.32 mPa·s
343.15 K, Vibrating tube method
  mass density: 1312.1 ± 2.1 kg/m3
348.15 K
  electrical conductivity: 0.968 ± 0.019 S/m
348.15 K, Concentric cylinders viscometry
  viscosity: 12.87 ± 0.28 mPa·s
348.15 K, Vibrating tube method
  mass density: 1307.8 ± 2.1 kg/m3
353.15 K
  electrical conductivity: 1.07 ± 0.022 S/m
353.15 K, Concentric cylinders viscometry
  viscosity: 11.32 ± 0.24 mPa·s
353.15 K, Vibrating tube method
  mass density: 1303.4 ± 2 kg/m3

## CCCCCC[n+]1cccc(C)c1.O=S(=O)([N-]S(=O)(=O)C(F)(F)F)C(F)(F)F
278.15 K
  electrical conductivity: 0.0495 ± 0.001 S/m
283.15 K
  electrical conductivity: 0.067 ± 0.0013 S/m
283.15 K, Buoyancy - hydrostatic balance
  mass density: 1373.6 ± 2 kg/m3
288.15 K
  electrical conductivity: 0.0885 ± 0.0018 S/m
[1]
  mass density: 1369.7 ± 2 kg/m3
293.15 K
  electrical conductivity: 0.116 ± 0.0023 S/m
[2]
  mass density: 1365.3 ± 2 kg/m3
298.15 K
  electrical conductivity: 0.148 ± 0.003 S/m
[3]
  mass density: 1361.5 ± 2 kg/m3
[4]
  viscosity: 86.59 ± 2.1 mPa·s
303.15 K
  electrical conductivity: 0.187 ± 0.0037 S/m
[5]
  mass density: 1357 ± 2 kg/m3
[6]
  viscosity: 67.83 ± 1.6 mPa·s
308.15 K
  electrical conductivity: 0.231 ± 0.005 S/m
[7]
  mass density: 1352.9 ± 2 kg/m3
[8]
  viscosity: 54.23 ± 1.2 mPa·s
313.15 K
  electrical conductivity: 0.283 ± 0.006 S/m
[9]
  mass density: 1348.7 ± 2 kg/m3
[10]
  viscosity: 44.24 ± 0.99 mPa·s
318.15 K
  electrical conductivity: 0.342 ± 0.007 S/m
[11]
  mass density: 1344.7 ± 2 kg/m3
[12]
  viscosity: 36.21 ± 0.81 mPa·s
323.15 K
  electrical conductivity: 0.406 ± 0.008 S/m
[13]
  mass density: 1340.3 ± 2 kg/m3
[14]
  viscosity: 29.97 ± 0.67 mPa·s
328.15 K
  electrical conductivity: 0.477 ± 0.01 S/m
[15]
  mass density: 1336 ± 2 kg/m3
[16]
  viscosity: 25.08 ± 0.55 mPa·s
333.15 K
  electrical conductivity: 0.553 ± 0.011 S/m
[17]
  mass density: 1331.7 ± 2 kg/m3
[18]
  viscosity: 21.31 ± 0.47 mPa·s
338.15 K
  electrical conductivity: 0.638 ± 0.013 S/m
[19]
  mass density: 1328 ± 2 kg/m3
[20]
  viscosity: 18.28 ± 0.4 mPa·s
343.15 K
  electrical conductivity: 0.728 ± 0.015 S/m
[21]
  viscosity: 15.88 ± 0.35 mPa·s
348.15 K
  electrical conductivity: 0.822 ± 0.016 S/m
[22]
  viscosity: 13.71 ± 0.3 mPa·s
353.15 K
  electrical conductivity: 0.92 ± 0.018 S/m
[23]
  viscosity: 11.99 ± 0.26 mPa·s
